Consider 13 molecules from patent US5945436A, “Pyridylmethyl nitriles, amides and thioamides useful as fungicides” (Uniroyal Chemical Company, Inc., priority 1997, dated 1999).

Test [1] deals with Cercosporidium personatum. The test is described as follows: Fungal germination and growth, treated disc on agar, scored (CER PER). The format is cell-based. Further details: key: 100: Complete inhibition of germination and growth.; 80: Nearly complete inhibition but some growth.; 50: Partial inhibition of growth or, early complete inhibition but later growth begins.; 20: Some inhibition of growth, but not significant.; 0: No inhibition of growth. Particulars: disc dipped in 500 mg/l, 29° C., numerical score 0-100, spore suspension. From the text:
Filter paper discs, each 11 mm. in diameter, were dipped in each of the test solutions. The discs were allowed to air dry to drive off the acetone solvent. A number of untreated discs were used as controls. The treated and untreated discs were then placed on agar plates and one of the following fungus species: Septoria nodorum (SEP NOD), Botrytis cinerea (BOT CIN), Fusarium oxysporum (FUS OXY), Pythium ultimum ([…]), Rhizoctonia solani (RHI SOL), Colletotrichum gossypii (COL GOS), and Scierotinia minor (SCL MIN), was added to the center of each disc in the form of a culture plug with the fungus mat in contact with the paper of the test disc. Cercosporidium personatum (CER PER), was added to discs as a spore suspension (20,000 spores/ml) to the disc (two drops of spore suspension per disc), rather than a mycelial culture plug. The plates were then incubated at 29° C. in an oven. In the case of the Cercosporidium personatum (CER PER) fungi, scoring was done on a numerical basis as follows: 100=Complete inhibition of germination and growth. 80=Nearly complete inhibition but some growth. 50=Partial inhibition of growth or, early complete inhibition but later growth begins. 20=Some inhibition of growth, but not significant. 0=No inhibition of growth. The results of all the above tests appear in Table III below under the headings "SEP NOD," "BOT CIN," "FUS OXY," "[…]" "COL GOS" and "CER PER".

The subject of another test is Fusarium oxysporum. The test is described as follows: Fungal growth inhibition, treated disc on agar (FUS OXY). The format is cell-based. As to conditions: Fusarium oxysporum, disc dipped in 500 mg/l, 29° C., read-out: Percent Growth Inhibition, FUS OXY.
The next test deals with Botrytis cinerea. The test is described as follows: Fungal growth inhibition, treated disc on agar (BOT CIN). It is filed as cell-based. As to conditions: Botrytis cinerea, disc dipped in 500 mg/l, 29° C., read-out: Percent Growth Inhibition, BOT CIN.
For the next test, the system named is Erysiphe cichoracearum. Kind of test: Powdery mildew of cucumber, systemic root uptake (CMS). As to conditions: 45 ml of 250 mg/l, 8 days after inoculation. It is filed as in vivo. On the procedure:
Compositions containing Compounds Nos. 1-81 were prepared by dissolving 0.24 grams of each of the compounds in 8 ml of acetone or other suitable inert solvent. Each of the resultant solutions was treated with 3 drops of TWEEN 20 (ethoxylated ethylene sorbitan monolaurate, a non-ionic surfactant)(I.C.I.), and water was added to form an emulsion. The degree of dilution with water was dictated by the desired concentration of the compound in the composition. The greater the quantity of water added, the lower the concentration of the compound in the composition, reported in milligrams per liter (mg/l) […] Upon reaching these ages, the plants were either treated with 45 ml of 250 mg/l concentration of the compositions of Example 9 or were left untreated. The untreated plants were used as controls. The 45 ml compositions saturated the soil of the treated pots without significant loss through drainage into the saucers below the pots. Twenty-four hours after the treatment with the compositions, both the barley and cucumber plants in all the pots, those treated and those untreated, were inoculated with powdery mildew fungus. This was accomplished by tapping leaves of previously infected barley and cucumber plants over the treated and untreated pots containing the barley and cucumber plants, respectively, to distribute spores of the fungus over the plants tested. […] Intermediate ratings were assigned depending on the degree of disease. […] The results of the powdery mildew disease control of barley are reported under the heading of "BMS". The results for cucumber mildew control are reported under the heading "CMS".

The test system of the next test is Septoria nodorum. The test is described as follows: Fungal growth inhibition, treated disc on agar (SEP NOD). The format is cell-based. As to conditions: Parastagonospora nodorum, disc dipped in 500 mg/l, 29° C., read-out: Percent Growth Inhibition, SEP NOD.
The next test has as its system Erysiphe graminis. Kind of test: Powdery mildew in barley, foliar application (ERY GRA). The format is in vivo. As to conditions: Blumeria graminis, foliar, 192 h, foliar, 1,000 mg/l, 8 days after inoculation, read-out: Percent Reduction of Disease, ERY GRA. How it is done:
Compositions containing Compounds Nos. 1-81 were prepared by dissolving 0.24 grams of each of the compounds in 8 ml of acetone or other suitable inert solvent. Each of the resultant solutions was treated with 3 drops of TWEEN 20 (ethoxylated ethylene sorbitan monolaurate, a non-ionic surfactant)(I.C.I.), and water was added to form an emulsion. The degree of dilution with water was dictated by the desired concentration of the compound in the composition. The greater the quantity of water added, the lower the concentration of the compound in the composition, reported in milligrams per liter (mg/l) Ten plants of "Robust" variety barley were planted in each of a plurality of pots. Each pot was then either sprayed with one of the compositions of Example 9, at a composition concentration of 1,000 mg/l, or left unsprayed. For each pot sprayed, one pot was left unsprayed as a control. After the leaves of the sprayed pots were dried, the sprayed pots and the unsprayed control pots were placed in a greenhouse maintained at 21° C. All the pots were then inoculated with barley powdery mildew fungus, Erysiphe graminis. This inoculation was accomplished by distributing spores of the fungus over the leaves of the plants to be tested from plants which had previously been infected with the mildew disease. […] Again, percent control was computed by comparing the treatment scores with the scores of the untreated controls. The results are summarized in Table II under the heading "ERY GRA".

For another test, the system named is Uromyces phaseoli. The test is described as follows: Bean rust fungus eradicant test (URO PHA). It is filed as in vivo. Particulars: Uromyces phaseoli, 216 h, pinto bean, eradicant spray 2 days after inoculation, 1,000 mg/l; read-out: Percent Reduction of Disease, URO PHA. How it is done: Compositions containing Compounds Nos. 1-81 were prepared by dissolving 0.24 grams of each of the compounds in 8 ml of acetone or other suitable inert solvent. Each of the resultant solutions was treated with 3 drops of TWEEN 20 (ethoxylated ethylene sorbitan monolaurate, a non-ionic surfactant)(I.C.I.), and water was added to form an emulsion. The degree of dilution with water was dictated by the desired concentration of the compound in the composition. The greater the quantity of water added, the lower the concentration of the compound in the composition, reported in milligrams per liter (mg/l) A plurality of pots were each planted with two pinto bean plants, Phaseolus vulgaris, each, susceptible to rust disease. When the plants were 7 days old, at the primary leaf stage of growth, they were all sprayed with a suspension containing 20,000 spores of the bean rust fungus, Uromyces phaseoli, per ml. All the pots were then incubated in a controlled environmental chamber, maintained at 99% humidity and 21° C., for 24 hours to allow infection to occur. The plants were then removed from the incubator and allowed to dry. Two days after inoculation each of the infected plants was then either sprayed with one of the compositions of Example 9, at a dosage of 1,000 mg/l, or left unsprayed. The unsprayed plants acted as controls. All of the sprayed and unsprayed plants were then placed in a greenhouse at 21° C. for nine days to allow the disease to develop. […] Control of disease was determined by comparing treated plants with the untreated controls. The results, expressed as percent reduction of disease, are summarized in Table II under the heading "URO PHA".

Turning to `N#CC(CCc1ccccc1)(CCc1ccccc1)c1cccnc1` [A, reference compound], the “CER PER inhibition score” value in test [1] is 0. Moreover, the values for the inhibition at 500 µg/mL in the test on Fusarium oxysporum, with Botrytis cinerea and with Septoria nodorum were 10%, 0% and 0%, respectively. For the same molecule, the “Percent Reduction of Disease, CMS” value in the test with Erysiphe cichoracearum is recorded as 50%. Moreover, the pest or weed control at 1000 µg/mL in the test on Erysiphe graminis and in the test on Uromyces phaseoli was 0% each time.
`CC(C)(C)c1ccc(CC(C#N)(Cc2ccc(C(C)(C)C)cc2)c2cccnc2)cc1` [B, reference compound]: in test [1], the “CER PER inhibition score” value was 0. For the same molecule, the inhibition (commonly the percentage by which the read-out fell short of the control) at 500 µg/mL turned out to be 0% with Fusarium oxysporum, 0% in the test with Botrytis cinerea and 10% in the test on Septoria nodorum. In addition, in the test with Erysiphe cichoracearum, the “Percent Reduction of Disease, CMS” value came to 50%. The values for the pest or weed control at 1000 µg/mL in the test on Erysiphe graminis and in the test with Uromyces phaseoli were 15% and 0%, respectively.
With `CCCC(C#N)(CCc1ccccc1)c1cccnc1` (stereo not shown) [Compound 1], the “CER PER inhibition score” value in test [1] amounted to 100. The values for the inhibition at 500 µg/mL with Fusarium oxysporum, in the test on Botrytis cinerea and in the test with Septoria nodorum were 97%, 5% and 0%, respectively. Further, the “Percent Reduction of Disease, CMS” value with Erysiphe cichoracearum was found to be 0%. Moreover, the pest or weed control at 1000 µg/mL in the test on Erysiphe graminis turned out to be 100%; in the test with Uromyces phaseoli it was 60%.
`CCCCCCCC(C#N)(CCc1ccccc1)c1cccnc1` (stereo not shown) [Compound 2]: the “CER PER inhibition score” value in test [1] worked out at 100. Moreover, the inhibition at 500 µg/mL in the test with Fusarium oxysporum turned out to be 30%; in the test with Botrytis cinerea, 60%; with Septoria nodorum, 0%. In the test with Erysiphe cichoracearum, the “Percent Reduction of Disease, CMS” value is listed as 0%. Besides, the results for the pest or weed control at 1000 µg/mL in the test with Erysiphe graminis and in the test with Uromyces phaseoli were 100% and 97%, respectively.
On to `CCCCCC(C#N)(CCc1ccccc1)c1cccnc1` (stereo not shown) [Compound 3], for which the “CER PER inhibition score” value in test [1] amounted to 100. Also, the figures for the inhibition at 500 µg/mL in the test with Fusarium oxysporum, in the test with Botrytis cinerea and in the test with Septoria nodorum were 0%, 100% and 86%, respectively. In addition, the “Percent Reduction of Disease, CMS” value in the test on Erysiphe cichoracearum is on record as 35%. The pest or weed control at 1000 µg/mL with Erysiphe graminis and with Uromyces phaseoli was 100% throughout.
In the case of `C#CCC(C#N)(CCc1ccccc1)c1cccnc1` (stereo not shown) [Compound 4], the “CER PER inhibition score” value in test [1] stood at 100. The values for the inhibition at 500 µg/mL in the test with Fusarium oxysporum, in the test on Botrytis cinerea and in the test on Septoria nodorum were 100%, 94% and 92%, respectively. In the test on Erysiphe cichoracearum, the “Percent Reduction of Disease, CMS” value worked out at 20%. The values for the pest or weed control at 1000 µg/mL in the test on Erysiphe graminis and in the test with Uromyces phaseoli were 70% and 0%, respectively.
Turning to `C=CCC(C#N)(CCc1ccccc1)c1cccnc1` (stereo not shown) [Compound 5], the “CER PER inhibition score” value in test [1] is 0. Also, the inhibition at 500 µg/mL in the test with Fusarium oxysporum was found to be 76%; with Botrytis cinerea it was 100%; with Septoria nodorum, 50%. Besides, in the test on Erysiphe cichoracearum, the “Percent Reduction of Disease, CMS” value is listed as 88%. Also, the pest or weed control at 1000 µg/mL worked out at 85% in the test on Erysiphe graminis and 90% in the test with Uromyces phaseoli.
With `COCC(C#N)(CCc1ccccc1)c1cccnc1` (stereo not shown) [Compound 6], the “CER PER inhibition score” value in test [1] worked out at 0. The values for the inhibition at 500 µg/mL in the test on Fusarium oxysporum, in the test on Botrytis cinerea and in the test with Septoria nodorum were 93%, 100% and 0%, respectively. The “Percent Reduction of Disease, CMS” value in the test on Erysiphe cichoracearum is recorded as 100%. Moreover, the pest or weed control at 1000 µg/mL came out at 70% with Erysiphe graminis and 50% in the test with Uromyces phaseoli.
For `CC(C)CC(C#N)(CCc1ccccc1)c1cccnc1` (stereo not shown) [Compound 7], in test [1], the “CER PER inhibition score” value is on record as 0. Moreover, the inhibition at 500 µg/mL is 100% in the test with Fusarium oxysporum, 100% with Botrytis cinerea and 5% with Septoria nodorum. The “Percent Reduction of Disease, CMS” value in the test on Erysiphe cichoracearum is given as 20%. Also, the pest or weed control at 1000 µg/mL in the test on Erysiphe graminis amounted to 100%; with Uromyces phaseoli, 90%.
Turning to `CC(C)=CCC(C#N)(CCc1ccccc1)c1cccnc1` (stereo not shown) [Compound 8], the “CER PER inhibition score” value in test [1] was 80. In addition, the figures for the inhibition at 500 µg/mL in the test with Fusarium oxysporum, in the test with Botrytis cinerea and with Septoria nodorum were 0%, 40% and 25%, respectively. In addition, the “Percent Reduction of Disease, CMS” value with Erysiphe cichoracearum came to 0%. Further, the pest or weed control at 1000 µg/mL in the test on Erysiphe graminis turned out to be 100%; with Uromyces phaseoli, 80%.
In the case of `C=CCC(C#N)(CCc1ccc(F)cc1)c1cccnc1` (stereo not drawn) [Compound 9, 4-fluoro-α-(2-propenyl)-α-(3-pyridinyl)benzenebutanenitrile], the “CER PER inhibition score” value in test [1] worked out at 100. Further, the inhibition at 500 µg/mL in the test with Fusarium oxysporum was determined as 100%; in the test on Botrytis cinerea it was 100%; with Septoria nodorum, 30%. In the test with Erysiphe cichoracearum, the “Percent Reduction of Disease, CMS” value is given as 74%. Moreover, the pest or weed control at 1000 µg/mL in the test with Erysiphe graminis and in the test with Uromyces phaseoli was 100% in each case.
Turning to `CCCC(C#N)(CCc1ccc(F)cc1)c1cccnc1` (stereo not shown) [Compound 10], the “CER PER inhibition score” value in test [1] amounted to 100. Moreover, the inhibition at 500 µg/mL with Fusarium oxysporum came to 97%; in the test on Botrytis cinerea, 98%; with Septoria nodorum, 80%. Moreover, the “Percent Reduction of Disease, CMS” value with Erysiphe cichoracearum came to 88%. Besides, the pest or weed control at 1000 µg/mL in the test with Erysiphe graminis and in the test on Uromyces phaseoli was 100% in each case.
In the case of `CCCCC(C#N)(CCc1ccc(F)cc1)c1cccnc1` (stereo not shown) [Compound 11], the “CER PER inhibition score” value in test [1] worked out at 0. Moreover, the inhibition at 500 µg/mL with Fusarium oxysporum amounted to 10%; in the test on Botrytis cinerea, 100%; with Septoria nodorum, 60%. For the same molecule, the “Percent Reduction of Disease, CMS” value with Erysiphe cichoracearum is 39%. The pest or weed control at 1000 µg/mL with Erysiphe graminis and in the test on Uromyces phaseoli was 100% each time.
